Measurements taken from patent US6635651B2, “Inhibitors of thrombin induced platelet aggregation” (Parker Hughes Institute, priority 1999, dated 2003).

Test system: thrombin induced platelet aggregation
Assay: Thrombin induced platelet aggregation (Chronolog aggregometer)
Assay type: cell-based
Conditions: 0.1 U/ml thrombin
Method: Platelets treated with 100 μM WHI-P131 or the parent compound, WHI-P258 (negative control), were stimulated with 0.1 U/ml thrombin or 10 μg/ml collagen. WHI-P131 is described above, WHI-P258 is an unsubstituted quinazoline and structurally shown below.
Platelet aggregation with respect to control was monitored in a Chronolog Model 560 Dual Chamber Platelet Aggregometer. […] WHI-P258 had no effect on the thrombin response (FIG. 1C).
Platelets treated with varying concentrations of WHI-P131 or WHI-P258 (negative control) were stimulated with 0.1 U/ml thrombin. Platelet aggregation with respect to control was monitored in a Chronolog Model 560 Dual Chamber Platelet Aggregometer. […] The results are charted in FIG. 2.

| IC50 (Platelet, varying concentrations) [µM] | SMILES | effect on thrombin induced platelet aggregation (100 μM) |
| --- | --- | --- |
| – | COc1cc2ncnc(Nc3ccccc3)c2cc1OC [WHI-P258, 4-(phenyl)-amino-6,7-dimethoxyquinazoline] | no effect |
| 1.5 | COc1cc2ncnc(Nc3ccc(O)cc3)c2cc1OC [WHI-P131, 4-(4′-Hydroxyphenyl)-amino-6,7-dimethoxyquinazoline] | – |
